Laboratory results taken from patent US4816448A, “Thermal isomer of difficidin and thermal isomer of oxydifficidin antibacterials” (Merck & Co., Inc., priority 1987, dated 1989).

Columns and labels:
[1] = system: S. aureus; assay: MIC, standard in vitro assay (Table I); format: cell-based, Staphylococcus aureus; details: in most cases
Description: (§1) Using standard in vitro assay techniques, minimal inhibitory concentrations (MIC) have been determined for the thermal isomer of difficidin and the thermal isomer of oxydifficidin against a number of bacteria.

[2] = system: Salmonella typhimurium; assay: MIC, standard in vitro assay (Table I); format: cell-based; details: in most cases
Description: as §1

[3] = system: Serratia marcescens; assay: MIC, standard in vitro assay (Table I); format: cell-based; details: in most cases
Description: as §1

[4] = system: P. aeruginosa; assay: MIC, standard in vitro assay (Table I); format: cell-based, Pseudomonas aeruginosa; details: Ps. aeruginosa; in most cases
Description: as §1

[5] = system: Proteus; assay: Antibacterial activity, relative potency; format: cell-based; details: in most cases
Description: as §1

[6] = system: aerobic microorganisms; assay: Antibacterial activity against aerobic microorganisms; format: cell-based; details: aerobic microorganisms such as Pseudomonas aeruginosa and Staphylococcus aureus
Description: as §1

[7] = system: anaerobic bacteria; assay: Antibacterial activity against anaerobic bacteria; format: cell-based
[8] = Isomerization of difficidin at 60° C., HPLC (Example IV); format: physicochemical; details: tetrahydrofuran
Description: Difficidin is stored as the potassium salt at pH7 in aqueous methanol solution at -80° C. A 0.67 ml aliquot containing 400 mcg of difficidin was evaporated to an oil and taken up in 0.2 ml of tetrahydrofuran. The sample was heated at 60° C. for 3 days.

[9] = Thermal isomerization of difficidin and oxydifficidin, equilibrium; format: physicochemical; details: for time to reach equilibrium with its thermal isomer / converted to thermal isomer at equilibrium: 60° C.; for converted to thermal isomer at equilibrium: suitable solvent such as water, alcohol or ethyl acetate
Description: Alternatively, the thermal isomers of the subject invention can be prepared by converting difficidin and oxydifficidin to the thermal isomer of difficidin and thermal isomer of oxydifficidin, respectively. Difficidin and oxydifficidin can be prepared and purified as described in U.S. Pat. No. 4,545,991. The thermal isomers can be prepared by thermally heating (to about 60° C.) the difficidin and oxydifficidin in a suitable solvent system such as water, alcohol or ethyl acetate. At 60° C., it takes about 24 hours for difficidin and oxydifficidin to reach equilibrium with its thermal isomer. At equilibrium, about 25% of the difficidin has converted to the thermal isomer and about 66% of the oxydifficidin has converted to its thermal isomer. […] The thermal isomer can then be separated from the equilibrium mixture by standard chromatographic techniques.

[10] = Isomerization of oxydifficidin at 60° C., HPLC (Example V); format: physicochemical; details: under argon, tetrahydrofuran
Description: Pure oxydifficidin was stored as the potassium salt, pH7, in aqueous methanol solution at -80° C. A 28 ml aliquot, containing 95 mg of antibiotic, was treated with 2 mg. of 2,6-di-t-butyl-phenol and evaporated to 3-4 ml. The concentrate was diluted with tetrahydrofuran to a final volume of 44 ml. The solution was heated under argon at 60° C.

**Q.** What does the source list for `C=C/C=C(\C)CCC1C/C=C\C=C(\C)C(OP(=O)(O)O)CC/C=C/C=C\C=C/CCC(C)C(=C)CC(=O)O1` (stereo not drawn) [thermal isomer of difficidin, (Z,Z,E,Z,Z,)-16-dihydroxyphosphinoxy-5,7-dimethyl-4-methylene-22-((E)-3-methyl-3,5-hexadienyl)oxacyclo-docosa-8,10,12,17,19-pentaen-2-one]?
**A.** effectiveness relative to thermal isomer of oxydifficidin [1]: four times more effective; effectiveness relative to thermal isomer of oxydifficidin [2]: four times more effective; effectiveness relative to thermal isomer of oxydifficidin [3]: four times more effective; effectiveness relative to thermal isomer of oxydifficidin [4]: four times more effective; effectiveness relative to thermal isomer of oxydifficidin [5]: four times more effective; potency against aerobic microorganisms vs thermal isomer of oxydifficidin [6]: more potent than the thermal isomer of oxydifficidin; activity against anaerobic bacteria [7]: active against a wide spectrum of anaerobic bacteria; Composition ([8]; 0 days): 2%; Composition ([8]; 3 days): 24%

**Q.** What does the source list for difficidin?
**A.** Composition ([8]; 0 days): 98%; Composition ([8]; 3 days): 76%; time to reach equilibrium with its thermal isomer [9]: about 24 hours; converted to thermal isomer at equilibrium [9]: about 25%; isomerization at room temperature [9]: some isomerization takes place

**Q.** With oxydifficidin [reference compound] as the compound, how does the Composition ([10]; 17 hrs., HPLC) read?
**A.** 39%

**Q.** What about the Composition ([10]; 24 hrs., HPLC) of the same compound?
**A.** 36%

**Q.** And the Composition ([10]; 41 hrs., HPLC)?
**A.** 34%

**Q.** What about the Composition ([10]; time 0, HPLC) of the same compound?
**A.** 98%

**Q.** And the “time to reach equilibrium with its thermal isomer” value [9]?
**A.** about 24 hours

**Q.** And the “converted to thermal isomer at equilibrium” value [9]?
**A.** about 66%

**Q.** What about the “isomerization at room temperature” value [9] of the same compound?
**A.** some isomerization takes place
